# In PubChem BioAssay (NCI):
#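 Compound exposure: 48 hours, 5 concentrations, 96-well plates. TGI: total growth inhibition.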
# Legend:
# Test in all cases: NCI anticancer screen, dose series, 48 h
# 786-0 renal = tested on: 786-0 renal
# A498 renal = tested on: A498 renal
# A549 NSCLC = tested on: A549 NSCLC
# ACHN renal = tested on: ACHN renal
# BT-549 breast = tested on: BT-549 breast
# CAKI-1 renal = tested on: CAKI-1 renal
# CCRF-CEM leukemia = tested on: CCRF-CEM leukemia
# COLO 205 colon = tested on: COLO 205 colon
# DU-145 prostate = tested on: DU-145 prostate
# EKVX NSCLC = tested on: EKVX NSCLC
# HCC-2998 colon = tested on: HCC-2998 colon
# HCT-116 colon = tested on: HCT-116 colon
# HCT-15 colon = tested on: HCT-15 colon
# HL-60(TB) leukemia = tested on: HL-60(TB) leukemia
# HOP-62 NSCLC = tested on: HOP-62 NSCLC
# HOP-92 NSCLC = tested on: HOP-92 NSCLC
# HS 578T breast = tested on: HS 578T breast
# HT29 colon = tested on: HT29 colon
# IGROV1 ovarian = tested on: IGROV1 ovarian
# K-562 leukemia = tested on: K-562 leukemia
# KM12 colon = tested on: KM12 colon
# LOX IMVI melanoma = tested on: LOX IMVI melanoma
# M14 melanoma = tested on: M14 melanoma
# MALME-3M melanoma = tested on: MALME-3M melanoma
# MCF7 breast = tested on: MCF7 breast
# MDA-MB-231 breast = tested on: MDA-MB-231 breast
# MDA-MB-435 = tested on: MDA-MB-435
# MDA-N = tested on: MDA-N
# MOLT-4 leukemia = tested on: MOLT-4 leukemia
# NCI-H226 lung = tested on: NCI-H226 lung
# NCI-H23 lung = tested on: NCI-H23 lung
# NCI-H460 lung = tested on: NCI-H460 lung
# NCI-H522 lung = tested on: NCI-H522 lung
# NCI/ADR-RES ovarian = tested on: NCI/ADR-RES ovarian
# OVCAR-3 ovarian = tested on: OVCAR-3 ovarian
# OVCAR-4 ovarian = tested on: OVCAR-4 ovarian
# OVCAR-5 ovarian = tested on: OVCAR-5 ovarian
# OVCAR-8 ovarian = tested on: OVCAR-8 ovarian
# PC-3 prostate = tested on: PC-3 prostate
# RPMI-8226 leukemia = tested on: RPMI-8226 leukemia
# RXF 393 renal = tested on: RXF 393 renal
# SF-268 CNS = tested on: SF-268 CNS
# SF-295 CNS = tested on: SF-295 CNS
# SF-539 CNS = tested on: SF-539 CNS
# SK-MEL-2 melanoma = tested on: SK-MEL-2 melanoma
# SK-MEL-28 melanoma = tested on: SK-MEL-28 melanoma
# SK-MEL-5 melanoma = tested on: SK-MEL-5 melanoma
# SK-OV-3 ovarian = tested on: SK-OV-3 ovarian
# SN12C renal = tested on: SN12C renal
# SNB-19 CNS = tested on: SNB-19 CNS
# SNB-75 CNS = tested on: SNB-75 CNS
# SR leukemia = tested on: SR leukemia
# SW-620 colon = tested on: SW-620 colon
# T-47D breast = tested on: T-47D breast
# TK-10 renal = tested on: TK-10 renal
# U251 CNS = tested on: U251 CNS
# UACC-257 melanoma = tested on: UACC-257 melanoma
# UACC-62 melanoma = tested on: UACC-62 melanoma
# UO-31 renal = tested on: UO-31 renal
# DLD-1 colon = tested on: DLD-1 colon
# DMS 273 small cell lung = tested on: DMS 273 small cell lung
# KM20L2 colon = tested on: KM20L2 colon
# LXFL 529 NSCLC = tested on: LXFL 529 NSCLC
# M19-MEL melanoma = tested on: M19-MEL melanoma
# SNB-78 CNS = tested on: SNB-78 CNS
# XF 498 CNS = tested on: XF 498 CNS
compound,measurement,setting,value
COc1c2ccccc2c(OC)c2nc(C)ccc12,TGI,786-0 renal,> 100 µM
same,TGI,A498 renal,> 100 µM
same,TGI,A549 NSCLC,> 100 µM
same,TGI,ACHN renal,> 100 µM
same,TGI,BT-549 breast,> 100 µM
same,TGI,CAKI-1 renal,> 100 µM
same,TGI,CCRF-CEM leukemia,71.6 µM
same,TGI,COLO 205 colon,> 96.7 µM
same,TGI,DU-145 prostate,> 100 µM
same,TGI,EKVX NSCLC,> 100 µM
same,TGI,HCC-2998 colon,> 100 µM
same,TGI,HCT-116 colon,> 100 µM
same,TGI,HCT-15 colon,> 100 µM
same,TGI,HL-60(TB) leukemia,61.8 µM
same,TGI,HOP-62 NSCLC,> 100 µM
same,TGI,HOP-92 NSCLC,> 100 µM
same,TGI,HS 578T breast,> 100 µM
same,TGI,HT29 colon,> 100 µM
same,TGI,IGROV1 ovarian,> 100 µM
same,TGI,K-562 leukemia,> 78.6 µM
same,TGI,KM12 colon,> 100 µM
same,TGI,LOX IMVI melanoma,56.1 µM
same,TGI,M14 melanoma,> 100 µM
same,TGI,MALME-3M melanoma,> 100 µM
same,TGI,MCF7 breast,> 100 µM
same,TGI,MDA-MB-231 breast,> 100 µM
same,TGI,MDA-MB-435,> 100 µM
same,TGI,MDA-N,> 100 µM
same,TGI,MOLT-4 leukemia,99.7 µM
same,TGI,NCI-H226 lung,> 100 µM
same,TGI,NCI-H23 lung,> 100 µM
same,TGI,NCI-H460 lung,> 100 µM
same,TGI,NCI-H522 lung,> 100 µM
same,TGI,NCI/ADR-RES ovarian,> 100 µM
same,TGI,OVCAR-3 ovarian,> 100 µM
same,TGI,OVCAR-4 ovarian,> 100 µM
same,TGI,OVCAR-5 ovarian,> 100 µM
same,TGI,OVCAR-8 ovarian,> 100 µM
same,TGI,PC-3 prostate,> 100 µM
same,TGI,RPMI-8226 leukemia,> 100 µM
same,TGI,RXF 393 renal,> 100 µM
same,TGI,SF-268 CNS,> 100 µM
same,TGI,SF-295 CNS,> 100 µM
same,TGI,SF-539 CNS,> 100 µM
same,TGI,SK-MEL-2 melanoma,> 100 µM
same,TGI,SK-MEL-28 melanoma,> 100 µM
same,TGI,SK-MEL-5 melanoma,> 100 µM
same,TGI,SK-OV-3 ovarian,> 100 µM
same,TGI,SN12C renal,> 100 µM
same,TGI,SNB-19 CNS,> 100 µM
same,TGI,SNB-75 CNS,> 100 µM
same,TGI,SR leukemia,> 79.5 µM
same,TGI,SW-620 colon,> 100 µM
same,TGI,T-47D breast,> 100 µM
same,TGI,TK-10 renal,> 100 µM
same,TGI,U251 CNS,> 46.4 µM
same,TGI,UACC-257 melanoma,> 100 µM
same,TGI,UACC-62 melanoma,> 100 µM
same,TGI,UO-31 renal,> 100 µM
COC(=O)C(=O)C(C#N)c1ccc(CC#N)cc1 (stereo not given),TGI,786-0 renal,> 100 µM
same,TGI,A549 NSCLC,> 100 µM
same,TGI,ACHN renal,> 100 µM
same,TGI,CAKI-1 renal,> 100 µM
same,TGI,CCRF-CEM leukemia,> 100 µM
same,TGI,DLD-1 colon,> 100 µM
same,TGI,DMS 273 small cell lung,> 100 µM
same,TGI,EKVX NSCLC,> 100 µM
same,TGI,HCT-116 colon,> 100 µM
same,TGI,HCT-15 colon,> 100 µM
same,TGI,HL-60(TB) leukemia,> 100 µM
same,TGI,HOP-92 NSCLC,> 100 µM
same,TGI,HT29 colon,> 100 µM
same,TGI,IGROV1 ovarian,> 100 µM
same,TGI,K-562 leukemia,> 100 µM
same,TGI,KM12 colon,> 100 µM
same,TGI,KM20L2 colon,> 100 µM
same,TGI,LOX IMVI melanoma,> 100 µM
same,TGI,LXFL 529 NSCLC,> 100 µM
same,TGI,M14 melanoma,> 100 µM
same,TGI,M19-MEL melanoma,> 100 µM
same,TGI,MALME-3M melanoma,> 100 µM
same,TGI,MOLT-4 leukemia,> 100 µM
same,TGI,NCI-H226 lung,> 100 µM
same,TGI,NCI-H23 lung,> 100 µM
same,TGI,NCI-H522 lung,> 100 µM
same,TGI,OVCAR-3 ovarian,> 100 µM
same,TGI,RPMI-8226 leukemia,> 100 µM
same,TGI,SF-268 CNS,> 100 µM
same,TGI,SF-295 CNS,> 100 µM
same,TGI,SF-539 CNS,> 100 µM
same,TGI,SK-MEL-2 melanoma,> 100 µM
same,TGI,SK-MEL-28 melanoma,> 100 µM
same,TGI,SK-OV-3 ovarian,> 100 µM
same,TGI,SN12C renal,> 100 µM
same,TGI,SNB-19 CNS,> 100 µM
same,TGI,SNB-75 CNS,> 100 µM
same,TGI,SNB-78 CNS,> 100 µM
same,TGI,SR leukemia,> 100 µM
same,TGI,SW-620 colon,> 100 µM
same,TGI,TK-10 renal,> 100 µM
same,TGI,U251 CNS,> 100 µM
same,TGI,UACC-257 melanoma,> 100 µM
same,TGI,UACC-62 melanoma,> 100 µM
same,TGI,UO-31 renal,> 100 µM
same,TGI,XF 498 CNS,> 100 µM
